Like-named read-outs stand apart in the source and are kept apart here. Square brackets hold non-standard residues; d marks the D form. Peptide text beside a SMILES is read from it. * marks the point of attachment. Dolaproine = CO[C@@H]([C@@H]1CCCN1)[C@@H](C)C(=O)O; Dil = CC[C@H](C)[C@H](NC)[C@@H](CC(=O)O)OC; X1 = C[C@@H](N*)[C@@H](O)c1ccccc1; NMeV = CN[C@H](C(=O)O)C(C)C
How the values were obtained:
[1] = system: ABCC3-overexpressing EVSA-T cells; assay: ATP-based luminescence viability assay, ABCC3-overexpressing EVSA-T clones; type: cell-based, human; settings: for inhibition of cell growth compared to vector-alone control stable cell line: all three overexpressing cell lines, ATP-based luminescence assay (FIG. 5); for EC50: three day assay, read-out: EC50 (concentration that resulted in half-maximal response)
Description: (§1) The control cell line in FIG. 5 is in fact a clone of EVSA-T derived after transfection with an empty vector and in the particular experiment shown achieved an IC50.
(§2) For ABCC3 overexpression experiments a full length ABCC3 cDNA cloned in the CMV promoter containing vector pCMV5 (Invitrogen, Carlsbad, Calif.) was verified by sequencing the entire coding sequence. The construct was transfected into EVSA-T cells and stable clones were selected by growth in lmg/ml geneticin (Invitrogen Carlsbad, Calif.). Overexpression of ABCC3 in stable clones was confirmed by qRT-PCR on cDNA derived from lines containing pCMV5-ABCC3, pCMV5 vector alone, or the parental EVSA-T strain. All stable cell lines described in this report were determined in qRT-PCR experiments to express at least 25-35× more ABCC3 transcript than vector control lines or the parental cell line.
(§3) Three independently derived lines were confirmed to overexpress ABCC3 transcripts and screened for in vitro sensitivity to paclitaxel and MMAE using an ATP-based luminescence assay. […] The EC50 for the vector control treated with paclitaxel was 0.2 nM while the EC50 values for the ABCC3-expressing lines were 5 nM, 10 nM, and 80 nM, respectively.
EVSA-T cells were stably transfected with an ABCC3 containing plasmid where ABCC3 is expressed at high levels from a cytomegalovirus (CMV) promoter. Overexpression of ABCC3 was confirmed by qRT-PCR.

EFM-192A cells = assay: Mitotic index (phospho histone H3) after ABCC3 or control siRNA, EFM-192A; type: cell-based, human; settings: for sensitivity (mitotic response) of ABCC3 siRNA transfected cells vs control siRNA (NTC) transfected cells: EFM-192A cells
Procedure: High content screening assays were carried out on an Arrayscan VTI (Cellomics Inc, Pittsburgh, Pa.). Cells were transfected in 96 well format using siRNA “Smartpool” oligonucleotides purchased from Dharmacon Inc and Oligofectamine transfection reagents. To prioritize genes for functional studies, 2-sided Wilcoxon rank sum tests using the R programming language (http://www.r-project.org) were done to identify genes with a significant difference in gene expression in cell lines with more than 4 copies compared to those with less than 4 copies of the 17q21.3 amplicon. This analysis combined with availability of reagents for RNAi experiments led to the selection of the following 24 genes for functional studies in the EFM-192A cell line: ABCC3, COL1A1, CROP, EAP, EPN3, FLJ13855, F1120920, HOXB7, LOC201191, ITGB3, KIAA0924, KPNB1, LOC400604, LOC81558, MGC11242, MGC15396, NDP52, PDK2, PHB, PP1R9B, SLC35B1, SPOP, TOB1, WNT3. Follow-up studies with ABCC3 siRNA were conducted in the additional cell lines ZR75-30, MDAMB-453 and HCC-1428. […] After 48 hours or 72 hours incubation at 37 C, cells were fixed in 3.7% formaldehyde and permeabilized in 0.1% Triton X-100, followed by labeling with a 1:500 dilution of anti-phospho histone H3 (pH3, Upstate) and subsequent 1:250 dilution of Alexa-fluor 488 (Molecular probes) Goat anti-rabbit secondary antibody. Cells were counterstained with Hoechst-33258 to allow identification of nuclei and the percentage of cells positive for nuclear pH3 immunofluorescence, also known as the Mitotic Index (30), was then quantitated for at least 1000 cells per well using Cellomics Target Activation software.
(§4) Phosphorylation at Ser10 of histone H3 is tightly correlated with chromosome condensation during M phase, and the percentage of cells that are positive for pH3 staining, or mitotic index, can be determined through an immunofluorescence assay.

EFM192A = assay: Celltiter-Glo Luminescent Cell Viability Assay, EFM192A; type: cell-based, human; settings: 72 hours
Procedure: (§5) For MMAE and paclitaxel IC50 determination, cells were plated in quadruplicate at a density of 3000 cells per well in 384-well plates in normal growth medium and allowed to adhere overnight. Paclitaxel (Sigma) or MMAE (Seattle Genetics, Seattle, Wash.) were added in 10 concentrations based on a three-fold dilution series (1 μmol/L maximal paclitaxel or 0.1 μmol/L maximal for MMAE).
(§6) Cell viability was measured 72 hours later using the Celltiter-Glo Luminescent Cell Viability Assay (Promega, Madison, Wis.). The concentration of drug resulting in the 50% inhibition of cell viability (IC50) was calculated from a four-parameter curve analysis (XLfit, 1DSS software) and was determined from a minimum of three experiments. […] FIG. 6 provides examples of representative cell viability experiments for six cell lines. Cell lines EFM192A, NDAMB361, and BT474 were classified as resistant to each agent in the bioinformatic analysis. AU565, EFM19, and MDAMB468 were classified as sensitive. IC50 values from fitted curves are shown in the charts to the right of each graph.

NDAMB361 = assay: Celltiter-Glo Luminescent Cell Viability Assay, NDAMB361; type: cell-based, human; settings: NDAMB361, 72 hours
Procedure: as §5, §6

BT474 = assay: Celltiter-Glo Luminescent Cell Viability Assay, BT474; type: cell-based, human; settings: BT474, 72 hours
Procedure: as §5, §6

[2] = system: EVSA-T cells (empty vector control clone); assay: ATP-based luminescence viability assay, EVSA-T vector control line; type: cell-based, human; settings: three day assay, read-out: EC50 (concentration that resulted in half-maximal response)
Description: as §1, §2, §3

AU565 = assay: Celltiter-Glo Luminescent Cell Viability Assay, AU565; type: cell-based; settings: Homo sapiens; AU565, 72 hours; read-out: classification in the bioinformatic analysis (IC50 cell viability), paclitaxel
Procedure: as §5, §6

EFM19 = assay: Celltiter-Glo Luminescent Cell Viability Assay, EFM19; type: cell-based; settings: Homo sapiens, EFM-19; EFM19, 72 hours; read-out: classification in the bioinformatic analysis (IC50 cell viability), paclitaxel
Procedure: as §5, §6

MDAMB468 = assay: Celltiter-Glo Luminescent Cell Viability Assay, MDAMB468; type: cell-based; settings: Homo sapiens, MDA-MB-468; MDAMB468, 72 hours; read-out: classification in the bioinformatic analysis (IC50 cell viability), paclitaxel
Procedure: as §5, §6

ZR75-30 = assay: Mitotic index (phospho histone H3) after ABCC3 or control siRNA, ZR75-30; type: cell-based, human; settings: ZR75-30 (ABCC3 amplified), drug-treated cells
Procedure: (§7) High content screening assays were carried out on an Arrayscan VTI (Cellomics Inc, Pittsburgh, Pa.). Cells were transfected in 96 well format using siRNA “Smartpool” oligonucleotides purchased from Dharmacon Inc and Oligofectamine transfection reagents. To prioritize genes for functional studies, 2-sided Wilcoxon rank sum tests using the R programming language (http://www.r-project.org) were done to identify genes with a significant difference in gene expression in cell lines with more than 4 copies compared to those with less than 4 copies of the 17q21.3 amplicon. […] Cells were counterstained with Hoechst-33258 to allow identification of nuclei and the percentage of cells positive for nuclear pH3 immunofluorescence, also known as the Mitotic Index (30), was then quantitated for at least 1000 cells per well using Cellomics Target Activation software.
as §4, with “An RNA interference strategy was used to identify the gene responsible for mediating resistance to taxanes and auristatins in amplified cell lines. […] Phosphorylation” for “Phosphorylation”, “assay. […]” for “assay.”

HCC-1428 = assay: Mitotic index (phospho histone H3) after ABCC3 or control siRNA, HCC-1428; type: cell-based, human; settings: HCC-1428 (non-amplified), drug-treated cells
Procedure: as §7
as §4, with “An RNA interference strategy was used to identify the gene responsible for mediating resistance to taxanes and auristatins in amplified cell lines. […] Phosphorylation” for “Phosphorylation”, “assay. […]” for “assay.”

MDA-MB-453 = assay: Mitotic index (phospho histone H3) after ABCC3 or control siRNA, MDA-MB-453; type: cell-based, human; settings: MDA-MB-453 (non-amplified), drug-treated cells
Procedure: as §7
as §4, with “An RNA interference strategy was used to identify the gene responsible for mediating resistance to taxanes and auristatins in amplified cell lines. […] Phosphorylation” for “Phosphorylation”, “assay. […]” for “assay.”

[3] = system: HER2-positive metastatic breast cancer
Procedure: ABCC3 FISH analysis was performed on samples obtained from the T-DM1 Phase II (TDM4258G) trial to explore the effect of ABCC3 amplification on T-DM1 activity in HER2 amplified breast tumors. The TDM4258G trial is a multi-institutional, open-label, single-arm, Phase II study of T-DM1 administered by IV infusion to patients with HER2-positive metastatic breast cancer. The patients in the trial had shown prior progression on HER2-directed therapy. Formalin Fixed Paraffin Embedded (FFPE) archival tumor tissue samples from the clinical trial was obtained from the clinical investigation sites with appropriate IRB approval and patient consent.
The FISH assay was performed on the clinical trial samples as described in Example 1. […] Those samples with ABCC3/CEP17 ratios of 1.8 and above are considered to have ABCC3 amplification.

[4] = read-out: classification in the bioinformatic analysis (IC50 cell viability), MMAE

COc1cc2cc(c1Cl)N(C)C(=O)C[C@H](OC(=O)[C@H](C)N(C)C(=O)CCS)[C@]1(C)O[C@H]1[C@H](C)[C@@H]1C[C@@](O)(NC(=O)O1)[C@H](OC)/C=C/C=C(\C)C2 [DM1]
sensitivity to free DM1 vs control cell line ([1]; three ABCC3 overexpressing clones, standard cell viability assay (FIG. 7)): more resistant | sensitivity (mitotic response) of ABCC3 siRNA transfected cells vs control siRNA (NTC) transfected cells (EFM-192A cells): more sensitive

CC[C@H](C)[C@@H]([C@@H](CC(=O)N1CCC[C@H]1[C@H](OC)[C@@H](C)C(=O)N[C@H](C)[C@@H](O)c1ccccc1)OC)N(C)C(=O)[C@@H](NC(=O)[C@@H](NC)C(C)C)C(C)C [MMAE, monomethyl auristatin E] (H-[NMeV]V[Dil][Dolaproine]-X1)
IC50 (EFM192A; [4]): > 100 nM | IC50 (NDAMB361; [4]): > 100 nM | IC50 (BT474; [4]): > 100 nM | EC50 [2]: 0.05 nM | inhibition of cell growth compared to vector-alone control stable cell line [1]: markedly less inhibition of cell growth | EC50 ([1]; first ABCC3-expressing EVSA-T line): 1.5 nM | EC50 ([1]; second ABCC3-expressing EVSA-T line): 12 nM | EC50 ([1]; third ABCC3-expressing EVSA-T line): 90 nM

CC(=O)O[C@H]1C(=O)[C@@]2(C)[C@H]([C@H](OC(=O)c3ccccc3)[C@]3(O)C[C@H](OC(=O)[C@H](O)[C@@H](NC(=O)c4ccccc4)c4ccccc4)C(C)=C1C3(C)C)[C@]1(OC(C)=O)CO[C@@H]1C[C@@H]2O [paclitaxel]
IC50 (EFM192A; Homo sapiens, EFM-192A, read-out: classification in the bioinformatic analysis (IC50 cell viability), paclitaxel): > 1000 nM | IC50 (NDAMB361; Homo sapiens, read-out: classification in the bioinformatic analysis (IC50 cell viability), paclitaxel): > 1000 nM | IC50 (BT474; Homo sapiens, BT-474, read-out: classification in the bioinformatic analysis (IC50 cell viability), paclitaxel): > 1000 nM | IC50 (AU565): < 10 nM | IC50 (EFM19): < 10 nM | IC50 (MDAMB468): < 10 nM | EC50 ([2]; Homo sapiens, 72 h): 0.2 nM | EC50 ([1]; Homo sapiens, EVSA-T, 72 h, first ABCC3-expressing EVSA-T line): 5 nM | EC50 ([1]; Homo sapiens, EVSA-T, 72 h, second ABCC3-expressing EVSA-T line): 10 nM | EC50 ([1]; Homo sapiens, EVSA-T, 72 h, third ABCC3-expressing EVSA-T line): 80 nM | inhibition of cell growth compared to vector-alone control stable cell line [1]: markedly less inhibition of cell growth | change in mitotic index, ABCC3 RNAi relative to non-targeting control siRNA (EFM-192A cells; EFM-192A (ABCC3 amplified), drug-treated cells): two to three fold increase | change in mitotic index, ABCC3 RNAi relative to non-targeting control siRNA (ZR75-30): two to three fold increase | change in mitotic index, ABCC3 RNAi relative to non-targeting control siRNA (HCC-1428): did not appreciably alter | change in mitotic index, ABCC3 RNAi relative to non-targeting control siRNA (MDA-MB-453): did not appreciably alter

Trastuzumab-MCC-DM1 [T-DM1]
sensitivity (mitotic response) of ABCC3 siRNA transfected cells vs control siRNA (NTC) transfected cells (EFM-192A cells): more sensitive | patients who responded to treatment ([3]; samples with amplification of ABCC3 (ABCC3/CEP17 ratio 1.8 and above), 2/5, IV infusion): 40% | patients who responded to treatment ([3]; samples with no amplification of ABCC3 (ABCC3/CEP17 below 1.8), 12/15, IV infusion): 80%
